Experimental data from PMC10116495 (Journal of the American Chemical Society, 2023).
Residues, ends and D or L forms follow the SMILES beside them. *: point of attachment. Cbz = O=C(OCc1ccccc1)*

Columns and labels:
NSD2 [1] = test: MG132, MLN4924 and TAK243 inhibitor assay; type: cell-based; conditions: U2OS cells, 6 h, 10 μM MG132, 1 μM MLN4924 or 1 μM TAK243
H3K36me2 [2] = conditions: KMS11 t(4;14) multiple myeloma cells; cited from earlier work
NSD2-PWWP1 = biological target: T1, NSD2-PWWP1 (Homo sapiens, UniProt O96028); conditions: previously shown by the authors; cited from earlier work
T1 sequence (O96028 222-286 limits assumed): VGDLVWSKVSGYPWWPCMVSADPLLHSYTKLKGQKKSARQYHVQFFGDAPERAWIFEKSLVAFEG

NSD2 [3] = biological target: T2, NSD2 (Homo sapiens, UniProt O96028); test: In-cell western; type: cell-based; conditions: U2OS cells, ICW
T2 sequence (O96028 1-627 limits assumed): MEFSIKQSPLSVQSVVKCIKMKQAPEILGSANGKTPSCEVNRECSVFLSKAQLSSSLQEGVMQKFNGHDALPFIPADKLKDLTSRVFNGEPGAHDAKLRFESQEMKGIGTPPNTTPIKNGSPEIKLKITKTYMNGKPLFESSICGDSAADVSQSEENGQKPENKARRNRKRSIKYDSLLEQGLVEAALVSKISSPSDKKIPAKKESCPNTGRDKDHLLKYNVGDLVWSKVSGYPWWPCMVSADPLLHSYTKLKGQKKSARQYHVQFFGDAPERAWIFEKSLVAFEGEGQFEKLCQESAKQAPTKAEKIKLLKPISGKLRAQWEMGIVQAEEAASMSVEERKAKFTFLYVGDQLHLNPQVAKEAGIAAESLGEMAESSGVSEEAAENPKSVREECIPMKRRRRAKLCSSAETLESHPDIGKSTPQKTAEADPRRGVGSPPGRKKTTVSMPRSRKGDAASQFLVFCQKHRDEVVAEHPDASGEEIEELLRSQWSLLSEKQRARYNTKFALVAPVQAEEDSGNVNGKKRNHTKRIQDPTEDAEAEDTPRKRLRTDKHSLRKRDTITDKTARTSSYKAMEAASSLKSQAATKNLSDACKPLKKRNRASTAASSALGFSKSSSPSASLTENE

NSD2-long [4] = biological target: T3, NSD2-long (Homo sapiens, UniProt O96028); test: Western blot of NSD2 in U2OS cells; type: cell-based; conditions: 10 μM, without replenishing the compound
T3 sequence (O96028 1-1365): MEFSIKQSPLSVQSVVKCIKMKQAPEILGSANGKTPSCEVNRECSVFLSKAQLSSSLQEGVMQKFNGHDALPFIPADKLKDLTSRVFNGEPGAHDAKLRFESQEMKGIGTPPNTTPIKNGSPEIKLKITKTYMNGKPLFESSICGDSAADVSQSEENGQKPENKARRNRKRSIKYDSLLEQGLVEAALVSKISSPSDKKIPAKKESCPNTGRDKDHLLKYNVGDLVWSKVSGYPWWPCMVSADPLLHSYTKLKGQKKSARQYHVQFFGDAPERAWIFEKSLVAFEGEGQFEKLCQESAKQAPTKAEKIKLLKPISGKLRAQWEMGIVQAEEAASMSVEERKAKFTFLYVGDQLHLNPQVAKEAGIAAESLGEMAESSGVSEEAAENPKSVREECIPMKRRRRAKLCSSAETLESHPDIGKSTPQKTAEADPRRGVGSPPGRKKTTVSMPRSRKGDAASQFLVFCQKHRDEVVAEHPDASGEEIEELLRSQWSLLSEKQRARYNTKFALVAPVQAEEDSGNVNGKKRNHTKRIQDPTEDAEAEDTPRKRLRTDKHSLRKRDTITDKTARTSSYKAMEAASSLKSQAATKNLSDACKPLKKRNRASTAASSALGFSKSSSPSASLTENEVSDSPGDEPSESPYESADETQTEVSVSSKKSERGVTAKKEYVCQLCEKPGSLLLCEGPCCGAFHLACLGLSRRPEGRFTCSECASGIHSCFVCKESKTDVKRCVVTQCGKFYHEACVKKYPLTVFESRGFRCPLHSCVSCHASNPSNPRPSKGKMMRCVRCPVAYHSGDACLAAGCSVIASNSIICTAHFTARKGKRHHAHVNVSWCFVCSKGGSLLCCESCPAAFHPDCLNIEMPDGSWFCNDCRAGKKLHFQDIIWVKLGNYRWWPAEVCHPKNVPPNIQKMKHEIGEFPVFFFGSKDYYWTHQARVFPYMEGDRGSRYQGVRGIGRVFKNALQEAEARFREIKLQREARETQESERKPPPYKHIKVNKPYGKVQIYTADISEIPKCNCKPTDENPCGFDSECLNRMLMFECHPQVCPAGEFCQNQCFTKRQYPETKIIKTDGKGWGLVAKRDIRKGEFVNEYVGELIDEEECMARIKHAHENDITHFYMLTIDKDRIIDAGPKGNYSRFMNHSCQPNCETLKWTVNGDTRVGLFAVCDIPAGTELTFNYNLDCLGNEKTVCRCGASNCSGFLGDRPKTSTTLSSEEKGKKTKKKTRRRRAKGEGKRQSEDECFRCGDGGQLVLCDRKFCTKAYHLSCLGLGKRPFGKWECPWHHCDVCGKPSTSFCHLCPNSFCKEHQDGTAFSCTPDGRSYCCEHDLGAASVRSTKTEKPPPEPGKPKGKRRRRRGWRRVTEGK

[5] = biological target: T4, NanoLuc-NSD2-PWWP1 / HaloTag-Ubiquitin (Homo sapiens, UniProt O96028); test: NanoBRET ubiquitination assay; type: cell-based; conditions: compared to UNC6934 or the vehicle
T4 sequence (O96028 222-286 limits assumed): T1 sequence (O96028 222-286 limits assumed)

NSD2 [6] = biological target: T2, NSD2; test: Global proteomics; type: cell-based; conditions: U2OS cells, 5 μM, 6 h, 7863 quantifiable proteins
NSD1 = NSD1 (Homo sapiens, UniProt Q96L73); test: Global proteomics and immunoblotting of NSD1 in U2OS cells; type: cell-based; conditions: 5 μM, 6 h proteomics, confirmed by immunoblotting
NSD1, sequence (Q96L73 whole entry): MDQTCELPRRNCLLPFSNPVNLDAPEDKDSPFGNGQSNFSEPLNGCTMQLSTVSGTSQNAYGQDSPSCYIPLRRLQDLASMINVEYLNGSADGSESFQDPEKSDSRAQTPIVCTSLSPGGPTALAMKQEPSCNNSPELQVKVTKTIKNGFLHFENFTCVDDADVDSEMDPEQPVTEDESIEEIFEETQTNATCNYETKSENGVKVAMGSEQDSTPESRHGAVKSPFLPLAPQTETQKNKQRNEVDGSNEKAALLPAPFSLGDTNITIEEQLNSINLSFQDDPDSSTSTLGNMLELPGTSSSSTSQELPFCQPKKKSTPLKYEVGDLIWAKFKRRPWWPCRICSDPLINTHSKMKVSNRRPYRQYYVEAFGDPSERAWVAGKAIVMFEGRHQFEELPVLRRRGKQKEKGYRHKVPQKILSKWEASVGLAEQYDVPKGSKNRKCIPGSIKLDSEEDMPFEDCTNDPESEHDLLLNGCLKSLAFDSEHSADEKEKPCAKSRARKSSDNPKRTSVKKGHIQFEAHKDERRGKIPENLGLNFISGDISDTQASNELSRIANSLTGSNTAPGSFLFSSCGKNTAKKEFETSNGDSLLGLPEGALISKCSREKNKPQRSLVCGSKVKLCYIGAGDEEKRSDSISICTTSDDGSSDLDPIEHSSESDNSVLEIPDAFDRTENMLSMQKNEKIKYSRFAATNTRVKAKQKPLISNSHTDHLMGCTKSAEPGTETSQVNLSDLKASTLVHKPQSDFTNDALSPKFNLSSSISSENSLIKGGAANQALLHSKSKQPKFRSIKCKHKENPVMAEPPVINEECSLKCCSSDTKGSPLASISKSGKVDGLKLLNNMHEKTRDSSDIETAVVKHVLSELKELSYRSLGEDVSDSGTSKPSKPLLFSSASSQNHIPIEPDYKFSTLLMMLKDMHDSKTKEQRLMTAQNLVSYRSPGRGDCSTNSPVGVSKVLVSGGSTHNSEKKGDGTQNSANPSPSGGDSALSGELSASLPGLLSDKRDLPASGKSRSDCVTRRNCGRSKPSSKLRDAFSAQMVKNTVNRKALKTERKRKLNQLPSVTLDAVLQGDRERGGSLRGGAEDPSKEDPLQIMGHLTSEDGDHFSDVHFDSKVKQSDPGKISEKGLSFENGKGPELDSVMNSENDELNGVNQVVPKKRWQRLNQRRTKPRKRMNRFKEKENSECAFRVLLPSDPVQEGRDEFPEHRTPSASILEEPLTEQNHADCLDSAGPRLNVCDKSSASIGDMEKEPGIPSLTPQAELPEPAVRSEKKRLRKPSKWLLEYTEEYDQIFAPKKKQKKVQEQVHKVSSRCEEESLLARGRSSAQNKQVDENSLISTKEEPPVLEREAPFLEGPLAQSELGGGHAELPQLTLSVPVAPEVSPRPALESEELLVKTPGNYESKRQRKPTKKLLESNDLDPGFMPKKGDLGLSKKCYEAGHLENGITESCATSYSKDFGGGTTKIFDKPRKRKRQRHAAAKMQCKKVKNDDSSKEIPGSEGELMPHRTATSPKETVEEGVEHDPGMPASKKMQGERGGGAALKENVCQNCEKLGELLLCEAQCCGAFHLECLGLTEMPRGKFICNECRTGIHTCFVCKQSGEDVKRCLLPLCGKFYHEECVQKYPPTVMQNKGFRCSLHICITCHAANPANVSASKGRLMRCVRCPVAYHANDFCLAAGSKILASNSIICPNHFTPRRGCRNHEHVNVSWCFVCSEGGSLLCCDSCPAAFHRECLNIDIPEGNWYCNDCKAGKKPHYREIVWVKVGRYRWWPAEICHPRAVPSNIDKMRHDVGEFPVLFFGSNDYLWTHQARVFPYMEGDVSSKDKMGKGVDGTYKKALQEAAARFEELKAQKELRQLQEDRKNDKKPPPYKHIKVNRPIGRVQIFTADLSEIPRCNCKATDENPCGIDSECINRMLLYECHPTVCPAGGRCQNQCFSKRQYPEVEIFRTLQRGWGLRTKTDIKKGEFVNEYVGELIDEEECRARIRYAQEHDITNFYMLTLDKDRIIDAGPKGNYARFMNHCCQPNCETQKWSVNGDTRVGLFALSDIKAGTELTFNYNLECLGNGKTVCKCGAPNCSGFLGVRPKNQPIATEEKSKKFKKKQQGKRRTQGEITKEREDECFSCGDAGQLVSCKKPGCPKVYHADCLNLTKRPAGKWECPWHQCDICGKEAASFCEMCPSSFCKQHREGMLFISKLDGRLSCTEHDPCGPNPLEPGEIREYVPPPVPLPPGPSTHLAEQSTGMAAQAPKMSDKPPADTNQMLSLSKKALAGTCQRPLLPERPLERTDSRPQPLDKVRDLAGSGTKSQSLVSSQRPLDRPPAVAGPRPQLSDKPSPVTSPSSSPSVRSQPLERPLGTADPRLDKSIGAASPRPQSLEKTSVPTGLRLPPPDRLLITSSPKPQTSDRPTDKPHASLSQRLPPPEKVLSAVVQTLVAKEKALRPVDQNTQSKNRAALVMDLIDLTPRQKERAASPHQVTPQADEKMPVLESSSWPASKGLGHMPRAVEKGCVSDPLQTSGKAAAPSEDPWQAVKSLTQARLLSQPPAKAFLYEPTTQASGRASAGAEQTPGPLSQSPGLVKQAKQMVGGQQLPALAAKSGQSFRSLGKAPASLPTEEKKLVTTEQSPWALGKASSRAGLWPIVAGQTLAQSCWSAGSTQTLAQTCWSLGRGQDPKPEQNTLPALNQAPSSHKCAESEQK

NSD3 = biological target: T5, NSD3 (Homo sapiens, UniProt Q9BZ95); test: Global proteomics and immunoblotting of NSD3 in U2OS cells; type: cell-based; conditions: 5 μM, 6 h proteomics, confirmed by immunoblotting
T5 sequence (Q9BZ95 1-1437): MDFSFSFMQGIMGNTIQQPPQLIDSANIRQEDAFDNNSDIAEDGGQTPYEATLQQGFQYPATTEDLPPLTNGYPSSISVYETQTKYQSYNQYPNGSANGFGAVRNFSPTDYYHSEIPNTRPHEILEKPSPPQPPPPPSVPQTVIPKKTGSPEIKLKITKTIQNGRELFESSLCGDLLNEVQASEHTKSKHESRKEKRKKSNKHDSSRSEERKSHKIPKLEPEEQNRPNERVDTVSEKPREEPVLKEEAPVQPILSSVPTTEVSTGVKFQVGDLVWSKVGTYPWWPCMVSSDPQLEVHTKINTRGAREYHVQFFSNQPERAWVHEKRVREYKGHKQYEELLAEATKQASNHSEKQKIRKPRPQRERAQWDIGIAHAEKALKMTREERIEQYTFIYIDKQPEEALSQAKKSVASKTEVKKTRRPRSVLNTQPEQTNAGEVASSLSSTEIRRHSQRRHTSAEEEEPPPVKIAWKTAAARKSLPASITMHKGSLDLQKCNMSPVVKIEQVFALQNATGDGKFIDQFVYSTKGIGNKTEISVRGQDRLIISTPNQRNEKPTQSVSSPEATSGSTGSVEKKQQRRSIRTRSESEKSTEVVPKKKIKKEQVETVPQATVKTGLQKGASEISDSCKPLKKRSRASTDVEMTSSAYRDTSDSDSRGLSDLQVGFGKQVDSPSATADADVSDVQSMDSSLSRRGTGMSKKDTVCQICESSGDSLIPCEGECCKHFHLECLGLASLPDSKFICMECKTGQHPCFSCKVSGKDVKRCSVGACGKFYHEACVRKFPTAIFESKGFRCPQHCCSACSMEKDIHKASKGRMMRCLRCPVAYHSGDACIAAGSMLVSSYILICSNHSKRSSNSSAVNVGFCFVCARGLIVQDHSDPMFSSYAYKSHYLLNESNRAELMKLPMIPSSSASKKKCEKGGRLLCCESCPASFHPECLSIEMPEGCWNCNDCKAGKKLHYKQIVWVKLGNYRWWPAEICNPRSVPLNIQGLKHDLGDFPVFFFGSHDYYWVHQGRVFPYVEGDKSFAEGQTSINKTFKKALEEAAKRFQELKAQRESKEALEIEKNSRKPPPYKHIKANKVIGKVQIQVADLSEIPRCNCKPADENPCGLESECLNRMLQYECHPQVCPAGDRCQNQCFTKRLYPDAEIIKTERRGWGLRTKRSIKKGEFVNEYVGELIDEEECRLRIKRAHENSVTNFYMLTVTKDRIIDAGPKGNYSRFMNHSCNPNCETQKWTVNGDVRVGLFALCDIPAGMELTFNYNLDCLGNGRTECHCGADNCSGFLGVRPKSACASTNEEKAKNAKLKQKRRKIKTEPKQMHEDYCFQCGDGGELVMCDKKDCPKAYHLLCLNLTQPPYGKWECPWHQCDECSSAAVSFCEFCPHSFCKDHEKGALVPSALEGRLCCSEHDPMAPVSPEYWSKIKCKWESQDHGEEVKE

NSD2-long [7] = biological target: T3, NSD2-long; test: NSD2 immunoblot in KMS11 cells; type: cell-based; conditions: read-out: IB: NSD2-long DC50, 1−60 μM, 6 days
H3K36me2 [8] = test: H3K36me2 immunoblot in KMS11 cells; type: cell-based
H3K36me1 = H3K36me1 immunoblot in KMS11 cells; type: cell-based
H3K36me3 = H3K36me3 immunoblot in KMS11 cells; type: cell-based
NSD2 and H3K36me2 [9] = test: NSD2 and H3K36me2 immunoblot in MM1S cells; type: cell-based; conditions: NSD2 E1099K, 10 μM, 6 days
NSD2 and H3K36me2 [10] = test: NSD2 and H3K36me2 immunoblot in RS411 cells; type: cell-based; conditions: RS411, NSD2 E1099K, 10 μM, 6 days
KMS11 cells [11] = test: KMS11 CellTiter-Glo luminescence cell viability assay; type: cell-based; conditions: up to 30 μM, 8 days
MM1S cells = test: MM1S dose-response treatment and proliferation assay; type: cell-based; conditions: increasing concentrations, 8 days, trypan blue cell count
MDA-MB-231 = MDA-MB-231 proliferation assay; type: cell-based; conditions: 20 μM, 5 days, confluency
U2OS = U2OS proliferation assay; type: cell-based; conditions: 20 μM, 5 days, confluency
HEK293 = HEK293 proliferation assay; type: cell-based; conditions: 20 μM, 5 days, confluency
KMS11 cells [12] = test: Adhesion assay in KMS11 cells; type: cell-based; conditions: 25 μM, 14 days, compared to control (UNC8587)
NSD family members = conditions: immunoblot

## CC(C)C[C@@H](C=O)NC(=O)[C@H](CC(C)C)NC(=O)[C@H](CC(C)C)NC(=O)OCc1ccccc1 [MG132] (Cbz-Leu-Leu-Leu-aldehyde)
NSD2 [1]
  effect of inhibitor on UNC8153-mediated NSD2 degradation: completely ablates NSD2 degradation

## NS(=O)(=O)OC[C@@H]1C[C@@H](n2ccc3c(N[C@H]4CCc5ccccc54)ncnc32)C[C@@H]1O [MLN4924]
NSD2 [1]
  effect of inhibitor on UNC8153-mediated NSD2 degradation: prevented NSD2 degradation

## NS(=O)(=O)OC[C@H]1C[C@@H](Nc2ccnc3cc(-c4cccc(SC(F)(F)F)c4)nn23)[C@H](O)[C@@H]1O [TAK243]
NSD2 [1]
  effect of inhibitor on UNC8153-mediated NSD2 degradation: prevented NSD2 degradation

## O=C1COc2cc(C(=O)N(Cc3ccc(C(=O)Nc4ccncn4)cc3)C3CC3)ccc2N1 [UNC6934]
H3K36me2 [2]
  global H3K36me2 levels in KMS11 cells: remain unaltered

## O=C(CCCC[C@@H]1SC[C@@H]2NC(=O)N[C@@H]21)NCCOCCOCCOCCOCCOCCOCCOCCOCCOCCOCCOCCNC(=O)c1ccc(NC(=O)c2ccc(CN(C(=O)c3ccc4c(c3)OCC(=O)N4)C3CC3)cc2)cc1 [UNC7096]
NSD2-PWWP1
  binding to NSD2 (in words): maintains binding to NSD2

## NCCCCCCNC(=O)c1ccc(NC(=O)c2ccc(CN(C(=O)c3ccc4c(c3)OCC(=O)N4)C3CC3)cc2)cc1 [UNC8153]
NSD2 [3]; 3 and 10 μM
  NSD2 degradation 30 min after compound treatment: ~ 40%
NSD2 [3]; confirmed by immunoblotting
  hook effect in NSD2 reduction: a hook effect occurs at high concentrations
NSD2-long [4]
  extent of degradation of NSD2-long 96 h after a single treatment: above 60%
[5]
  BRET signal between HaloTag-ubiquitin and NanoLuc-NSD2-PWWP1: increased BRET signals
NSD2 [6]
  selectivity of NSD2 degradation within the measurable proteome: NSD2 was selectively degraded
NSD1
  degradation of NSD1: not degraded
NSD3
  degradation of NSD3: not degraded
NSD2-long [7]
  DC50: 3.41 µM
H3K36me2 [8]; 20 μM, 2−8 days, loss after 6 days, control 8 days
  H3K36me2 levels, time course: Significant loss of the H3K36me2 mark
H3K36me2 [8]; 1−60 μM, 6 days
  H3K36me2 levels, dose response: dose-dependent reduction of the H3K36me2 mark
H3K36me1
  H3K36me1 level: increase in H3K36 monomethylation
H3K36me3
  H3K36me3 level: decreased slightly
NSD2 and H3K36me2 [9]
  NSD2 and H3K36me2 modulation in MM1S cells: similarly responsive
NSD2 and H3K36me2 [10]
  NSD2 and H3K36me2 modulation in RS411 cells: similarly responsive
KMS11 cells [11]
  proliferation / cell viability of KMS11 cells: did not result in a significant change in proliferation
MM1S cells
  proliferation of MM1S cells: mild antiproliferative effect
MDA-MB-231
  proliferative potential of MDA-MB-231 cells: no significant changes in proliferative potential
U2OS
  proliferative potential of U2OS cells: no significant changes in proliferative potential
HEK293
  proliferative potential of HEK293 cells: no significant changes in proliferative potential
KMS11 cells [12]
  cell adhesion to Matrigel: Significant antiadhesive effects
NSD family members
  selectivity for NSD2 over other NSD family members in MM1S cells: selectively degrades NSD2 over other NSD family members
